Experimental data taken from patent publication US20100062012A1, “Negative Genetic Regulation of Cancer Cell Renewal in Synergy with Notch- or Numb-Specific Immunotherapy” (priority 2007, published 2010).
Marks after values point to notes of the source that are not given here.

Legend:
[1] = test system: MCF7; assay: Flow cytometry of CSt-C markers after culture with drugs; type: cell-based, human
Experimental: (§1) Flow cytometery analysis. All cells were cultured with Gem at 2×IC50 of gemcitabine for 10 days. Cultured cells (2×10^5) were washed in cold-PBS followed by blocking with 20 μL of 1 mg/mL of human IgG (Sigma, Saint Louis, Mo.) for 1 hour on ice. This step was necessary to inhibit non-specific binding of immunoglobulins during staining. Cells were then triple-stained with antibodies against ESA, CD44, and CD24. Analysis was performed with Becton Dickinson FACSCalibur and Cell Quest software (Becton Dickinson). Cells were gated on ESA+ population. Expression of CD24 and CD44 was examined in gated ESA+ cells as we described (26). The population of the ESA+, CD44hi and CD24low/− cells was calculated as percent of total cells and total ESA+ cells. All cell lines were also stained with a MIC-A/B and CD133, and analyzed as above.

[2] = test system: MIA-PaCa-2; assay: as above; type: cell-based, human
Experimental: as §1

[3] = test system: MIA-PaCa-2; assay: Flow cytometry of NKG2D ligands MIC-A/B in drug-resistant cells; type: cell-based, human; settings: MIA PaCa-2, FIG. 7A
Experimental: as §1
To address the hypothesis that drug-resistant cancer cells are more sensitive to cellular immune effectors, we quantified expression of NKG2D ligands, MIC-A and -B (58, 59). ESA^+ MIA-PaCa-2 cells were analyzed for MIC-A/B. MCF7 cells were analyzed with CD44, CD24 and MIC-A/B (FIG. 7B), because almost all MCF7 cells (95% and more) expressed ESA.

[4] = test system: SKOV-3; assay: MTT inhibition of proliferation; type: cell-based, human; settings: Homo sapiens, SK-OV-3, 72 h, SKOV-3, MTT
Text: (§2) Inhibition of proliferation of tumor cell lines by anticancer drugs.

[5] = test system: AsPC-1; assay: MTT inhibition of proliferation; type: cell-based, human; settings: Homo sapiens, ASPC1, 72 h, AsPC-1, MTT, 72 h
Text: as §2

[6] = test system: MCF7; assay: MTT inhibition of proliferation; type: cell-based; settings: Homo sapiens, 72 h
Text: as §2

[7] = test system: MIA-PaCa-2; assay: MTT inhibition of proliferation; type: cell-based; settings: Homo sapiens; MIA-PaCa-2, MTT, 72 h
Text: as §2

[8] = test system: PANC-1; assay: MTT inhibition of proliferation; type: cell-based; settings: Homo sapiens; PANC-1, MTT, 72 h
Text: as §2

[9] = test system: MIA-PaCa-2; assay: Flow cytometry of CSt-C markers after culture with drugs; type: cell-based, human; settings: starting from 3.0×10^6 Mia-PaCa-2 cells
[10] = test system: MCF7 cells; assay: Stimulation of MCF7 / GEMRes MCF7 by DLL4; type: cell-based, human
Experimental: Stimulation of GEMRes MCF7 by DLL4. GEMRes MCF7 were obtained after culture with 0.3 uM GEM for 7 weeks. MCF7 were stimulated for 24 hrs, in medium containing estradiol, fibroblast growth factor in the presence or absence of DLL4, as described (40).

[11] = test system: CD8+ T cells (TAL) from ascites of HLA-A2+ ovarian cancer patients; assay: peptide-HLA-A2-IgG dimer staining of ovarian tumor associated lymphocytes (flow cytometry); type: cell-based, human; settings: for patients with activated CD8+ Perforin+ cells expressing TCR specific for the peptide: five ovarian cancer patients
Text: Lymphocyte culture. Lymphocytes were isolated by Ficoll-gradient centrifugation from heparinized ascites from HLA-A2^+ ovarian cancer patients. After separation, we cultured lymphocytes with RPMI 1640 medium with 10% FCS and 300 IU of IL-2 (Biosource Camarillo, Calif.) for one week, as we described (23,24).
We identified cells expressing high concentrations/numbers of T cell receptors (TCRs) reactive with each peptide to evaluate the role of TCR density in CTL differentiation upon in vivo stimulation with the same ligands. The TCR^+ population which usually includes cells staining with antigen-tetramers/dimers with a mean fluorescence intensity (MFI) higher than 101, was divided in three populations, one staining with antigen-pulsed HLA-A2/IgG dimers (dimers) with a MFI (TCR) between 101 and 102, and other which stained with antigen-pulsed dimers with a MFI (TCR) between 102 and 103, and other which stained with antigen-pulsed dimers with a MFI (TCR) between 103 and 104. These populations were designated as TCR^lo, TCRmed, and […], respectively, as we described (26).
T cell: peptide-HLA-A2-lgG dimer interaction. Expression of TCRs specific for peptides Notch1 (1940-1948), Notch1 (2112-2120), Numb1 (87-95), Gli1 (580-588) and AESI (128-137) was determined using HLA-A2-IgG-dimmers (BD Bioscience Pharmingen). The peptide loaded dimers were prepared as we previously described (23). Staining of lymphocyte with dimers was performed as described previously (24,27,28).
The same cells were also stained for the expression of CD8 antigen and the presence of Perforin, (effector pore forming enzyme) using specific antibodies conjugated to distinct fluorochromes than the dimers: fluorescein isothiocianate (FITC), allophycocyanin (APC) and PE. Cells reacting with the corresponding peptide-loaded dimers are designated as Notch1-1940-TCR^+, Notch1-2112-TCR^+, Numb1-87-TCR^+, and […] cells, respectively. Cells reacted with control HLA-A2-IgG dimers not loaded with peptide are designated as dNP-TCR^+ cells.

[12] = biological target: Notch receptor on MCF7 cells (human); assay: cell-based or functional assay
[13] = MIA-PaCa-2 after culture with drug
[14] = Patient 1, TCR-density High, TAL one week in 300 IU IL-2

recombinant human Delta-like protein 4, sequence (Q9NR61 27-524 limits assumed, stated change not applied): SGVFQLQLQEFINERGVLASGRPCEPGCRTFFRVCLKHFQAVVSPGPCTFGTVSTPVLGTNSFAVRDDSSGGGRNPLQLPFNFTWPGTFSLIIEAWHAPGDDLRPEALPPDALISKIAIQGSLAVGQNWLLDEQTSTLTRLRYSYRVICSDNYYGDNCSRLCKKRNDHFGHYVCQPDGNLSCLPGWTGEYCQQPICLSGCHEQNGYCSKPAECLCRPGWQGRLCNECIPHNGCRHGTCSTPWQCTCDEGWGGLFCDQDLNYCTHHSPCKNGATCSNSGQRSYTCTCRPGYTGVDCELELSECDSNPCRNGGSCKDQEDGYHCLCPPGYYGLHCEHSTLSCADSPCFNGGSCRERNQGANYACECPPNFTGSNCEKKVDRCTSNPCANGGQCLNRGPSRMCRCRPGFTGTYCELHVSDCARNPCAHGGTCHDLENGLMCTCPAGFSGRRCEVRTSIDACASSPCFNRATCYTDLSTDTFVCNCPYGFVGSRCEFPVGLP

Compound	% TCR+ cells for HLA-A2: peptide [11, 14]	% TCR+ cells for HLA-A2: peptide ([11]; Patient 1, TCR-density Low) [%]	% TCR+ cells for HLA-A2: peptide ([11]; Patient 1, TCR-density Med)	% TCR+ cells for HLA-A2: peptide ([11]; Patient 2, TCR-density High) [%]	% TCR+ cells for HLA-A2: peptide ([11]; Patient 2, TCR-density Low)	% TCR+ cells for HLA-A2: peptide ([11]; Patient 2, TCR-density Med) [%]	% TCR+ cells for HLA-A2: peptide ([11]; Patient 3, TCR-density High) [%]	% TCR+ cells for HLA-A2: peptide ([11]; Patient 3, TCR-density Low) [%]	% TCR+ cells for HLA-A2: peptide ([11]; Patient 3, TCR-density Med) [%]	% TCR+ cells for HLA-A2: peptide ([11]; Patient 4, TCR-density High) [%]	% TCR+ cells for HLA-A2: peptide ([11]; Patient 4, TCR-density Low) [%]	% TCR+ cells for HLA-A2: peptide ([11]; Patient 4, TCR-density Med)	% TCR+ cells for HLA-A2: peptide ([11]; Patient 5, TCR-density High)	% TCR+ cells for HLA-A2: peptide ([11]; Patient 5, TCR-density Low) [%]	% TCR+ cells for HLA-A2: peptide ([11]; Patient 5, TCR-density Med) [%]	further results
O=c1[nH]cc(F)c(=O)[nH]1 [5-FU, 5-fluorouracil]	–	–	–	–	–	–	–	–	–	–	–	–	–	–	–	change of CSt-like-C population ([1]; MCF7): increased; cells harvested ([1]; after culture of 3×10^6 MCF-7 cells): 1.6 ×10^6; change of CSt-C (CSt-like-C) population ([2]; MIA-PaCa-2): increased; % CD44hi CD24- in ESA+ cells [2, 13]: 0.2%; % CD44hi CD24hi in ESA+ cells [2, 13]: 7.1%; % CD44hi CD24low in ESA+ cells [2, 13]: 19.8%; % CSt-like-C [2, 13]: 16.4%; % ESA+ [2, 13]: 83.0%; number of cells expressing MICA and MICB in drug-resistant cells [3]: increased; IC50 [4]: 3.6 µM; IC50 [5]: 15.2 µM; IC50 [6]: 1.3 µM; IC50 [7]: 3.7 µM; IC50 [8]: 0.8 µM; cells harvested [9]: 3.4 ×10^6 cells
DLL4: recombinant human Delta-like protein 4, soluble Notch ligand	–	–	–	–	–	–	–	–	–	–	–	–	–	–	–	expansion of CD44+ CD24low cells compared with medium ([10]; DLL4-activation of GEMRes cells): 2-3 fold; CD44hi CD24hi (% of cells) ([10]; MCF7): 36.4%; CD44hi CD24hi (cell number) ([10]; MCF7): 6.84; CD44hi CD24low (% of cells) ([10]; MCF7): (3.5%); CD44hi CD24low (cell number) ([10]; MCF7): 0.66 × 10^6; ratio CD44hi CD24hi to CD44hi CD24low ([10]; MCF7): 10.4; Stimulation Index ([10]; MCF7, harvested/seeded): 6.27; Harvested cells ([10]; MCF7, seeded 3.0 x 10^6): *18.80 10^6
LPL TPLPVGL [AES1]	0.19%	0.23	0.23%	–	–	–	–	–	–	–	–	–	–	–	–	–
RLLDEYNLV (listed as Homo sapiens) [Notch1-2112]	0.26%	0.24	0.28%	0.17	2.09* %	0.35	0.08	0.43	0.28	0.08	0.88	0.34* %	0.17%	2.52	0.36	TCRmed cells relative to base-line NP dimers ([11]; Patient 4): 2.61 times; TCRmed cells relative to base-line control dNP ([11]; Patient 5): 1.63 times; patients with activated CD8+ Perforin+ cells expressing TCR specific for the peptide [11]: two of five
RLLEASADA (listed as Homo sapiens) [Notch1-1947, used as specificity control]	–	–	–	0.10	0.99%	0.32	0.10	0.65	0.24	0.22	0.53	0.26%	0.14%	1.98	0.26	–
VLWVSADGL (listed as Homo sapiens) [Numb1-87]	0.64* %	0.51	0.66* %	0.16	2.76* %	0.46	0.09	0.50	0.21	0.22	0.53	0.26%	0.27* %	1.84	0.27	TCRhi CD8+ cells relative to cells reactive with control dNP dimers ([11]; Patient 5): 2.45 times; increase in numbers of TCRhi Perhi cells compared with Notch1-2112 dimer ([11]; TAL-1, FIG. 4): 3.3 fold; amount of Perforin in peptide-TCR+ cells ([11]; TAL-1, FIG. 4G): highest amount of Perforin; increase in numbers of TCR+ cells ([11]; TAL-2, large-size lymphocytes, FIG. 5H): 3 fold; patients with activated CD8+ Perforin+ cells expressing TCR specific for the peptide [11]: three of five
recombinant human Delta-like protein 4 (from UniProt Q9NR61 27-524) (ligand)	–	–	–	–	–	–	–	–	–	–	–	–	–	–	–	Harvested cells: 10^6 (MCF7, DLL4, no GEM; NT control 12.96) [12]: 1.88e+07 cells; Harvested cells: 10^6 (MCF7, DLL4 with GEM; GEM alone 1.32) [12]: 2.16e+06 cells; Stimulation Index (proliferation of MCF7 cells, DLL4, no GEM; NT control 4.32) [12]: 6.27; Stimulation Index (proliferation of MCF7 cells, DLL4 with GEM; GEM alone 0.44) [12]: 0.72; increase in total cell number at stimulation with DLL4 [12]: > 45%
